Several values for one entry are separate records, joined by “and”; a condition that tells them apart may be missing. Identical values can stand only once. Like-named read-outs stand apart in the source and are kept apart here.
Experiment: Single dose pharmacokinetic study in beagle dog
Type: in vivo
Description: Pharmacokinetic studies were conducted in male beagle dogs and male cynomolgus monkeys at SRI International, Menlo Park, CA. General procedures for animal care and housing were in accordance with the National Research Council (NRC) Guide for the Care and Use of Laboratory Animals (1996) and the Animal Welfare Standards incorporated in 9 CFR Part 3, 1991 and complied with guidelines set forth by the ARVO Animal Statement for the Use of Animals in Ophthalmic and Vision Research. During the course of the PK experiments, cynomolgus monkeys were individually housed in stainless steel primary enclosures in an AAALAC-accredited facility. Animals were fed a commercial monkey chow, and supplemental food was provided (fresh fruits, vegetables, seeds, and nuts). Reverse osmosis-purified drinking water was available at all times. Cynomolgus monkeys were maintained on a 12:12 hour light:dark cycle at the 64–84°F temperature and 30–70% humidity. Monkeys had access to enrichment opportunities (grooming devices, foraging devices, activity panels and mirrors) and were provided auditory stimuli and human interaction enrichment throughout the study. Blood samples were collected by venipuncture of a peripheral vein. Animals were acclimated to the squeeze back mechanism in their home cage by repeated, short periods of restraint during general husbandry procedures for at least 2 weeks prior to dosing. Animal were not removed from their cages for collection, and no anesthesia/analgesic agents were used for blood collection. […] For PK experiments, beagle dogs were individually housed in enclosed run (≥ 4 ft x 6 ft). Dogs were exposed to their daily ration of food, Harlan Teklad 2025C Certified Global 25% Protein Dog Diet. Water was provided from the public water supply (municipal tap water) ad libitum. Dogs were maintained on a 12:12 hour light:dark cycle at the 72–73°F temperature and 40–71% humidity. Every effort was made to minimize, if not eliminate, pain and suffering in all animals in this study. No restraining devices were used in blood collecting procedures. Dogs were gentle hand-held to restrain by trained technicians with the dogs foreleg extended for sample collection of blood from cephalic vein. Animals were awake during blood sample collection with no anesthesia/analgesic agents used, and positive reinforcement by the technician was provided following collection. […] All dogs were released back to the colony after the study was completed. Male beagle dogs and male cynomolgus monkey received a single i.v. dose of a test compound at 0.5 mg kg^−1 (dog) and 1 mg kg^−1 (monkey) or a single p.o. dose of a test compound of at 2 mg kg^−1 (dog) and 5 mg kg^−1 (monkey). The number of animals that was used in PK experiments is 3 per study group. Intravenous administration vehicle was 3% DMA/45% PEG300/12% ethanol/40% sterile water; p.o. vehicle was 2% Tween 80 in 0.9% saline. […] Blood samples were processed to plasma. Following protein extraction with acetonitrile, compound concentrations in plasma were measured by LC-MS/MS. The plasma drug level data were analyzed using WinNonlin software package; Model 201 (for i.v. bolus administration);was used for the analysis of i.v. data, and Model 200 (for extravascular administration) was used for the analysis of the p.o. data. Aliquots of pre-dose plasma samples, as well as aliquots of plasma PK samples, were used for the analysis of the plasmabiomarker, RBP4.

Cc1cc(C(=O)O)nc(N2C[C@H]3C[C@@H](c4ccccc4C(F)(F)F)C[C@H]3C2)n1 [BPN-14136]
%F, bioavailability (Dog, 2.0 mg kg^−1 p.o. vs 0.5 mg kg^−1 i.v.): 84.2 ± 10.4% | plasma concentrations of compound (dog plasma at 24, 36, and 48 hours after 2 mg kg^−1 oral dosing): 0.07 to 0.5 µg/mL | Plasma level, Individual animals (male beagle dog, iv 0.5 mg/kg, 0.083 hr, 0.5 mg/kg): 2.75 µg/mL and 2.65 µg/mL | Plasma level, Individual animals (male beagle dog, iv 0.5 mg/kg, 0.25 hr, 0.5 mg/kg): 2.09 µg/mL and 2.14 µg/mL | Plasma level, Individual animals (male beagle dog, iv 0.5 mg/kg, 0.5 hr, 0.5 mg/kg): 1.82 µg/mL and 1.8 µg/mL | Plasma level, Individual animals (male beagle dog, iv 0.5 mg/kg, 1 hr, 0.5 mg/kg): 1.27 µg/mL and 1.38 µg/mL | Plasma level, Individual animals (male beagle dog, iv 0.5 mg/kg, 2 hr, 0.5 mg/kg): 1.06 µg/mL and 1 µg/mL | Plasma level, Individual animals (male beagle dog, iv 0.5 mg/kg, 4 hr, 0.5 mg/kg): 0.492 µg/mL and 0.458 µg/mL | Plasma level, Individual animals (male beagle dog, iv 0.5 mg/kg, 6 hr, 0.5 mg/kg): 0.284 µg/mL and 0.281 µg/mL | Plasma level, Individual animals (male beagle dog, iv 0.5 mg/kg, 8 hr, 0.5 mg/kg): 0.203 µg/mL and 0.207 µg/mL | Plasma level, Individual animals (male beagle dog, iv 0.5 mg/kg, 12 hr, 0.5 mg/kg): 0.0692 µg/mL and 0.141 µg/mL and 0.111 µg/mL | Plasma level, Individual animals (male beagle dog, iv 0.5 mg/kg, 24 hr, 0.5 mg/kg): 0.186 µg/mL and 0.171 µg/mL | Plasma level, Individual animals (male beagle dog, iv 0.5 mg/kg, 36 hr, 0.5 mg/kg): 0.0471 µg/mL and 0.0425 µg/mL | Plasma level, Individual animals (male beagle dog, iv 0.5 mg/kg, 48 hr, 0.5 mg/kg): 0.102 µg/mL and 0.093 µg/mL | Plasma level, Individual animals (male beagle dog, po 2 mg/kg, 0.25 hr, 2 mg/kg): 9.28 µg/mL and 4.89 µg/mL | Plasma level, Individual animals (male beagle dog, po 2 mg/kg, 0.5 hr, 2 mg/kg): 7.73 µg/mL and 6.08 µg/mL | Plasma level, Individual animals (male beagle dog, po 2 mg/kg, 1 hr, 2 mg/kg): 6.08 µg/mL and 5.1 µg/mL | Plasma level, Individual animals (male beagle dog, po 2 mg/kg, 2 hr, 2 mg/kg): 4.46 µg/mL and 4.3 µg/mL | Plasma level, Individual animals (male beagle dog, po 2 mg/kg, 4 hr, 2 mg/kg): 2.56 µg/mL and 2.08 µg/mL | Plasma level, Individual animals (male beagle dog, po 2 mg/kg, 8 hr, 2 mg/kg): 0.971 µg/mL and 0.885 µg/mL | Plasma level, Individual animals (male beagle dog, po 2 mg/kg, 10 hr, 2 mg/kg): 0.581 µg/mL and 0.69 µg/mL | Plasma level, Individual animals (male beagle dog, po 2 mg/kg, 12 hr, 2 mg/kg): 0.391 µg/mL and 0.753 µg/mL | Plasma level, Individual animals (male beagle dog, po 2 mg/kg, 24 hr, 2 mg/kg): 0.542 µg/mL and 0.277 µg/mL | Plasma level, Individual animals (male beagle dog, po 2 mg/kg, 36 hr, 2 mg/kg): 0.0953 µg/mL and 0.105 µg/mL | Plasma level, Individual animals (male beagle dog, po 2 mg/kg, 48 hr, 2 mg/kg): 0.152 µg/mL and 0.16 µg/mL and 0.067 µg/mL | concentration at 0.083 h (male, beagle, dog, plasma, iv, 0.5 mg/kg, male beagle dog, iv 0.5 mg/kg, 0.083 hr, read-out: Plasma level, Individual animals): 2.66 µg/mL | concentration at 0.083 h (male, beagle, dog, plasma, iv, 0.5 mg/kg, male beagle dog, iv 0.5 mg/kg, 0.083 hr, read-out: Plasma level, Mean): 2.69 µg/mL | concentration at 0.25 h (male, beagle, dog, plasma, iv, 0.5 mg/kg, male beagle dog, iv 0.5 mg/kg, 0.25 hr, read-out: Plasma level, Individual animals): 2 µg/mL | concentration at 0.25 h (male, beagle, dog, plasma, iv, 0.5 mg/kg, male beagle dog, iv 0.5 mg/kg, 0.25 hr, read-out: Plasma level, Mean): 2.08 µg/mL | concentration at 0.5 h (male, beagle, dog, plasma, iv, 0.5 mg/kg, male beagle dog, iv 0.5 mg/kg, 0.5 hr, read-out: Plasma level, Individual animals): 1.69 µg/mL | concentration at 0.5 h (male, beagle, dog, plasma, iv, 0.5 mg/kg, male beagle dog, iv 0.5 mg/kg, 0.5 hr, read-out: Plasma level, Mean): 1.77 µg/mL | concentration at 1 h (male, beagle, dog, plasma, iv, 0.5 mg/kg, male beagle dog, iv 0.5 mg/kg, 1 hr, read-out: Plasma level, Individual animals): 1.5 µg/mL | concentration at 1 h (male, beagle, dog, plasma, iv, 0.5 mg/kg, male beagle dog, iv 0.5 mg/kg, 1 hr, read-out: Plasma level, Mean): 1.38 µg/mL | concentration at 2 h (male, beagle, dog, plasma, iv, 0.5 mg/kg, male beagle dog, iv 0.5 mg/kg, 2 hr, read-out: Plasma level, Individual animals): 1.02 µg/mL | concentration at 2 h (male, beagle, dog, plasma, iv, 0.5 mg/kg, male beagle dog, iv 0.5 mg/kg, 2 hr, read-out: Plasma level, Mean): 1.03 µg/mL | concentration at 4 h (male, beagle, dog, plasma, iv, 0.5 mg/kg, male beagle dog, iv 0.5 mg/kg, 4 hr, read-out: Plasma level, Individual animals): 0.442 µg/mL | concentration at 4 h (male, beagle, dog, plasma, iv, 0.5 mg/kg, male beagle dog, iv 0.5 mg/kg, 4 hr, read-out: Plasma level, Mean): 0.464 µg/mL | concentration at 6 h (male, beagle, dog, plasma, iv, 0.5 mg/kg, male beagle dog, iv 0.5 mg/kg, 6 hr, read-out: Plasma level, Individual animals): 0.308 µg/mL | concentration at 6 h (male, beagle, dog, plasma, iv, 0.5 mg/kg, male beagle dog, iv 0.5 mg/kg, 6 hr, read-out: Plasma level, Mean): 0.291 µg/mL | concentration at 8 h (male, beagle, dog, plasma, iv, 0.5 mg/kg, male beagle dog, iv 0.5 mg/kg, 8 hr, read-out: Plasma level, Individual animals): 0.217 µg/mL

— PMC6980506, “Comparative pharmacokinetics and pharmacodynamics of the advanced Retinol-Binding Protein 4 antagonist in dog and cynomolgus monkey” (PLoS ONE, 2020)
